# Data taken from ChEMBL document CHEMBL1201862, “PubChem BioAssay data set” (2004).
# Active and inactive are the calls of the source.
# Tests used:
# CAAX prenyl protease 2 [1] = target: T1, CAAX prenyl protease 2 (Saccharomyces cerevisiae S288c, UniProt Q03530); assay type: biochemical
# T1 sequence (Q03530 whole entry): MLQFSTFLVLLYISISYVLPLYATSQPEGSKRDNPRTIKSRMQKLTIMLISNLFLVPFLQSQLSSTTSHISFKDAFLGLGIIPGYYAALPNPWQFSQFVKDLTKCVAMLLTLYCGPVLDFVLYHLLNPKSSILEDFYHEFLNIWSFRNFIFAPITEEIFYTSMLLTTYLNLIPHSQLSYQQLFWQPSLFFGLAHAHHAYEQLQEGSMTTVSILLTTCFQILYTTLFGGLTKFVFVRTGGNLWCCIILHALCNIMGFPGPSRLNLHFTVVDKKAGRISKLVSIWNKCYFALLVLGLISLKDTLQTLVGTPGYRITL
# Trypsin = Trypsin (Sus scrofa, UniProt P00761); assay: porcine trypsin inhibitors, dose response, selectivity assay for Rce1 protease inhibitor project, biochemical, quenched peptide fluorescence, cherry-pick (AID 488789)
# Trypsin, sequence (P00761 whole entry): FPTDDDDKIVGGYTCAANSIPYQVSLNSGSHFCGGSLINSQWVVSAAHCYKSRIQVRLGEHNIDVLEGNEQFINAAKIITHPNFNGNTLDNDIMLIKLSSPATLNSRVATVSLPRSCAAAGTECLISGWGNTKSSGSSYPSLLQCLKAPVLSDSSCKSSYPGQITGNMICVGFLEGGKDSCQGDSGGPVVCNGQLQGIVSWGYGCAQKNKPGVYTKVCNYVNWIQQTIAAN
# CAAX prenyl protease 2 [2] = target: T2, CAAX prenyl protease 2 (Homo sapiens, UniProt Q9Y256); assay: human Rce1 protease inhibitors, dose response, biochemical, yeast membranes, quenched-peptide fluorescence, cherry-pick (AID 588849)
# T2 sequence (Q9Y256 whole entry): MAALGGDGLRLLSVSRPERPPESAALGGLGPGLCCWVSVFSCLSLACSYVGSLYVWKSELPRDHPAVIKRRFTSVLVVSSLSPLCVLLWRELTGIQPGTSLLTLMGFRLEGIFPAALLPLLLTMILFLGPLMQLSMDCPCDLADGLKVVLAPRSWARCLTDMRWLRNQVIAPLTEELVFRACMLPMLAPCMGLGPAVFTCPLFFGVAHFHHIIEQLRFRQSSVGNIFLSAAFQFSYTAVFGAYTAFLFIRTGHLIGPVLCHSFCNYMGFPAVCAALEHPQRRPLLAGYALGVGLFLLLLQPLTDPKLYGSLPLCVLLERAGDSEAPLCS
# [3] = target: T3, Microphthalmia-associated transcription factor (Homo sapiens, UniProt O75030); assay: TRPM1 promoter luciferase signal decrease, dose response, MITF inhibitor project, cell-based, SK-MEL-5, cherry-picked, set 3 (AID 493073); assay type: functional
# T3 sequence (O75030 whole entry): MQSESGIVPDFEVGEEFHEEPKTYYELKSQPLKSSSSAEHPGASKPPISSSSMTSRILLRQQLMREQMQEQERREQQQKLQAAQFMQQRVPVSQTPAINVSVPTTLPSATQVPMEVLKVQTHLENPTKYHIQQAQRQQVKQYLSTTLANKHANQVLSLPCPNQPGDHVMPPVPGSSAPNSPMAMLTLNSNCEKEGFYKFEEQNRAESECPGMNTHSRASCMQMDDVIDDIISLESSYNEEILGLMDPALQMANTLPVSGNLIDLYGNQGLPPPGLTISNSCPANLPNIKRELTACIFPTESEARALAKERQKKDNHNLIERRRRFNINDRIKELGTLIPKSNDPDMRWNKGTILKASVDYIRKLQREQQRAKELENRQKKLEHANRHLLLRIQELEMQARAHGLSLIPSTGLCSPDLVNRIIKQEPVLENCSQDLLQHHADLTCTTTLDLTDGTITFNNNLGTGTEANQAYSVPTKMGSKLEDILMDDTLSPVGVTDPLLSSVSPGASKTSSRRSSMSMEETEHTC
# Vero = assay: cells; assay type: functional; conditions: Chlorocebus sabaeus
# [4] = HEp-2 cell cytotoxicity, dose response, cytotoxicity control for RSV inhibitor project, HTS (AID 2410); assay type: functional; conditions: human respiratory syncytial virus
# [5] = target: Peroxisome proliferator-activated receptor gamma/Nuclear receptor coactivator 1 (Homo sapiens, UniProt P37231); assay: (§1) TR-FRET dose response biochemical High Throughput Screening assay for agonists of the steroid receptor coactivator 1 (SRC-1) recruitment by the peroxisome proliferator-activated receptor gamma (PPAR gamma): non-selective agonists. [Related pubchem assays (depositor defined):AID1300, AID1808, AID504735, AID631]; assay type: protein assay
# [6] = target: Peroxisome proliferator-activated receptor gamma/Nuclear receptor coactivator 3 (Homo sapiens, UniProt P37231); assay: as §1, with “3 (SRC-3)” for “1 (SRC-1)”, “assays: 1301 (Confirmation screen.), 1048 (Primary screen.)]” for “assays (depositor defined):AID1300, AID1808, AID504735, AID631]”; assay type: functional
# Peroxisome proliferator-activated receptor gamma/Nuclear receptor coactivator 3, sequence (P37231 whole entry): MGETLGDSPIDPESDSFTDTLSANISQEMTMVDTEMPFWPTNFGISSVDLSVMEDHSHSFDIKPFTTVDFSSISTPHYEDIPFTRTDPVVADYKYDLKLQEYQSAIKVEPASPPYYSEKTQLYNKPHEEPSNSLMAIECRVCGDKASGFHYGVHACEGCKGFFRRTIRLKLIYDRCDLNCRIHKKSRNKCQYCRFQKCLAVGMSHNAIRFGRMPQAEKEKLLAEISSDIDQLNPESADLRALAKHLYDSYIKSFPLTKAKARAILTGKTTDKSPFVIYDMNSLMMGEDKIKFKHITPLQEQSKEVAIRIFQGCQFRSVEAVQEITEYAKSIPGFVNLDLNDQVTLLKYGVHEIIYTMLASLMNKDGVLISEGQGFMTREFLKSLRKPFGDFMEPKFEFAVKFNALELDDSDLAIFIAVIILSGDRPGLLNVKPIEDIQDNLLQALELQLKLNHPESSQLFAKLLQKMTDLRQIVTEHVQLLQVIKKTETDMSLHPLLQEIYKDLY
# Peroxisome proliferator-activated receptor gamma/Nuclear receptor coactivator 3, sequence (Q9Y6Q9 whole entry, further chain): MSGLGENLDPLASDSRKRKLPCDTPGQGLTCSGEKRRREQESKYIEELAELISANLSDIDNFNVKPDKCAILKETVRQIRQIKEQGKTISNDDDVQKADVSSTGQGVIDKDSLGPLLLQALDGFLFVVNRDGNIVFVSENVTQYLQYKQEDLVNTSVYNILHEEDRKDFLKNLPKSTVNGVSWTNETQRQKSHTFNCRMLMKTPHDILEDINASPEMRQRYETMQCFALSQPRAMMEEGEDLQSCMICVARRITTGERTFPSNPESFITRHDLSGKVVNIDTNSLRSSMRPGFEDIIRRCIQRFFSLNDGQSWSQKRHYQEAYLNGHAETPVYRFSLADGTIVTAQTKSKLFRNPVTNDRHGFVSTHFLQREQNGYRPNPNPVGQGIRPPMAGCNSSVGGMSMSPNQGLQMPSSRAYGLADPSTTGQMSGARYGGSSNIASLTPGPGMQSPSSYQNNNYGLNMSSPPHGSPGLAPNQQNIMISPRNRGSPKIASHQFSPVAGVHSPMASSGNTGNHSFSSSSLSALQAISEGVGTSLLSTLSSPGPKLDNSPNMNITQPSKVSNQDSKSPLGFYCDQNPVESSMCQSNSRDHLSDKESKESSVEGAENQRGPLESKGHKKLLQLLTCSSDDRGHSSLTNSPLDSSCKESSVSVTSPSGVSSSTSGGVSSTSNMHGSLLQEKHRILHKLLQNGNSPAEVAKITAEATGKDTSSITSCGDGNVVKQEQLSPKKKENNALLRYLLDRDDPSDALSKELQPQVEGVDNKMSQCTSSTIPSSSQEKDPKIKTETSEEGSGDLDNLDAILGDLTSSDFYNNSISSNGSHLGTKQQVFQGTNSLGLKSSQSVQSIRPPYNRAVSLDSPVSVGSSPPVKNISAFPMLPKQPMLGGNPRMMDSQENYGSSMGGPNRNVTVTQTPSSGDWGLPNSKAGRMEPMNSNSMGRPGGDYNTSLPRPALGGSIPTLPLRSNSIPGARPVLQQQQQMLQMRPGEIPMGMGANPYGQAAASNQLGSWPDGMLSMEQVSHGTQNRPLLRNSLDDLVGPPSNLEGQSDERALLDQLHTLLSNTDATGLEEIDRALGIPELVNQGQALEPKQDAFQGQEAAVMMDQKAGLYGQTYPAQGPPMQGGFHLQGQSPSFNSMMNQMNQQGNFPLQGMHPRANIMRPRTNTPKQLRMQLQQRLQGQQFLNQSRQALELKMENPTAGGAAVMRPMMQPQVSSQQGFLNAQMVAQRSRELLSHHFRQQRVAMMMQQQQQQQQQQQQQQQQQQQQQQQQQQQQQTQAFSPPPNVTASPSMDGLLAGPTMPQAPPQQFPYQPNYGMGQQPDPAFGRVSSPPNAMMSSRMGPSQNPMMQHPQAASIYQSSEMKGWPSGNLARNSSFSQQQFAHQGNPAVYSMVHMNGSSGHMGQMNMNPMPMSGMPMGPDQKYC
# [7] = target: Peroxisome proliferator-activated receptor gamma/Nuclear receptor coactivator 2 (Homo sapiens, UniProt P37231); assay: TR-FRET dose response biochemical High Throughput Screening assay for agonists of the steroid receptor coactivator 2 (SRC-2) recruitment by the peroxisome proliferator-activated receptor gamma (PPAR gamma): non-selective agonists. [Related pubchem assays: 1297, 1032 ]; assay type: functional
# Protein skinhead-1 = target: T4, Protein skinhead-1 (Caenorhabditis elegans, UniProt P34707); assay type: functional
# T4 sequence (P34707 whole entry): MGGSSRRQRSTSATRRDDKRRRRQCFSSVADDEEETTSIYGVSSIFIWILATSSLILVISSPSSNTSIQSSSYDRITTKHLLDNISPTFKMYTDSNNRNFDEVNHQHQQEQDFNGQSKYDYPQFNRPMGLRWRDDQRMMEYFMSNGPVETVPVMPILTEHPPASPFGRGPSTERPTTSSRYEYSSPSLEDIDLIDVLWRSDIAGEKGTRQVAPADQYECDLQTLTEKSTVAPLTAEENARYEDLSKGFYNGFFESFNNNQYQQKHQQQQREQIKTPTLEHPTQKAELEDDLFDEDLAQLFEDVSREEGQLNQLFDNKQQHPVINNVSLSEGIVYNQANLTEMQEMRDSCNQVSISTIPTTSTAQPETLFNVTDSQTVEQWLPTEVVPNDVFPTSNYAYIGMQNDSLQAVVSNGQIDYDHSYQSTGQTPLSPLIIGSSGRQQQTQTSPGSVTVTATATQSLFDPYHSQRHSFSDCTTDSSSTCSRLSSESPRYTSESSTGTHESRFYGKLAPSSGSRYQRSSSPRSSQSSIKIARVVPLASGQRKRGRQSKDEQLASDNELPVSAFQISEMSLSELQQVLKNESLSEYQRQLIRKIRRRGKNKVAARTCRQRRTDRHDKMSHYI
# HEK293 [8] = assay: NOD1 signaling inhibitors, primary screen, cell-based, luminescence, uHTS (AID 1578); assay type: functional; conditions: Homo sapiens
# HEK293 [9] = assay: cells; assay type: functional, cell-based; conditions: Homo sapiens
# HEK293 [10] = assay: cells; assay type: functional, cell-based; conditions: Homo sapiens; remark: listed apart in the source
# [11] = target: T5, Nucleotide-binding oligomerization domain-containing protein 2 (Homo sapiens, UniProt Q9HC29); assay: NOD2 signaling inhibitors, cell-based, luminescence, uHTS, HEK293 (AID 1566); assay type: functional
# T5 sequence (Q9HC29 whole entry, the tested form may be a part): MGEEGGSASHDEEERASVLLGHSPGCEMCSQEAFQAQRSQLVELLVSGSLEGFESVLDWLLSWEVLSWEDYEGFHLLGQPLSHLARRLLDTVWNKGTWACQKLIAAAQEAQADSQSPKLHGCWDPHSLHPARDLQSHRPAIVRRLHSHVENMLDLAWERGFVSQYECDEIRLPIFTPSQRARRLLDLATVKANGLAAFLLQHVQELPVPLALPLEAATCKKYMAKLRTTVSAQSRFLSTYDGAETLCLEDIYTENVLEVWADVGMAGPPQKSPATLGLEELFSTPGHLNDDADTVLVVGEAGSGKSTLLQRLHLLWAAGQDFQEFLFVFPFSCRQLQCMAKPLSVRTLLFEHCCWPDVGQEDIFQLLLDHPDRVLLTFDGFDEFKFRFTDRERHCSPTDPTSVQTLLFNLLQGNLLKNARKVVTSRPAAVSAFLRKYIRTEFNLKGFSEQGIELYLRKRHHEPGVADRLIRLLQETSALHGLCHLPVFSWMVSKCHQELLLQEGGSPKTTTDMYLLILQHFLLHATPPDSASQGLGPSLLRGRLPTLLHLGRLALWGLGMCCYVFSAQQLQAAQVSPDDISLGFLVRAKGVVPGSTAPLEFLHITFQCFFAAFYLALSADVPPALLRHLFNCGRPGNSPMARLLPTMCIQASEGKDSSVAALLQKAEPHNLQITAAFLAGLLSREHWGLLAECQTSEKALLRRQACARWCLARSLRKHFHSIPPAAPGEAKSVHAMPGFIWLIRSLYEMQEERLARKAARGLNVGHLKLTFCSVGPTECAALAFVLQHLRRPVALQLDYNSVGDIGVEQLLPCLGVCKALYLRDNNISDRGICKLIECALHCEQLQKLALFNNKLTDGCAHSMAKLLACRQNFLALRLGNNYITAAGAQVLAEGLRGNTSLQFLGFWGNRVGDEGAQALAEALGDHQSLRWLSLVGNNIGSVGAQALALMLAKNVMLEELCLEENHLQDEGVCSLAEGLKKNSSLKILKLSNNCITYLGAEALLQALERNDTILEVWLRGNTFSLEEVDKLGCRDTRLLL
# HEK293 [12] = assay: NOD2 signaling inhibitors in MDP-stimulated cells, cell-based, uHTS, luminescence (AID 2001); assay type: functional; conditions: Homo sapiens
# HEK293 [13] = assay: cells; assay type: functional, cell-based; conditions: Homo sapiens; remark: listed apart in the source
# Tumor necrosis factor = Tumor necrosis factor (Homo sapiens, UniProt P01375); assay: TNFa-triggered NF-kB activation inhibitors, SAR follow-up, cell-based, revised (AID 2337); assay type: functional
# Tumor necrosis factor, sequence (P01375 whole entry, the tested form may be a part): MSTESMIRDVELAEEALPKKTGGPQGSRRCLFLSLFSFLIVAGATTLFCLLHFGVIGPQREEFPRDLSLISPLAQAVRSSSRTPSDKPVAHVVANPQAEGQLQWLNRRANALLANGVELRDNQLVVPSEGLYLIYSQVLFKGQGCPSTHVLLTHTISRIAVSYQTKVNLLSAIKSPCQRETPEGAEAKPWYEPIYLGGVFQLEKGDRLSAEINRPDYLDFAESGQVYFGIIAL
# [14] = target: T6, Nucleotide-binding oligomerization domain-containing protein 1 (Homo sapiens, UniProt Q9Y239); assay: NOD1 signaling inhibitors, SAR follow-up, revised (AID 2333); assay type: functional
# T6 sequence (Q9Y239 whole entry): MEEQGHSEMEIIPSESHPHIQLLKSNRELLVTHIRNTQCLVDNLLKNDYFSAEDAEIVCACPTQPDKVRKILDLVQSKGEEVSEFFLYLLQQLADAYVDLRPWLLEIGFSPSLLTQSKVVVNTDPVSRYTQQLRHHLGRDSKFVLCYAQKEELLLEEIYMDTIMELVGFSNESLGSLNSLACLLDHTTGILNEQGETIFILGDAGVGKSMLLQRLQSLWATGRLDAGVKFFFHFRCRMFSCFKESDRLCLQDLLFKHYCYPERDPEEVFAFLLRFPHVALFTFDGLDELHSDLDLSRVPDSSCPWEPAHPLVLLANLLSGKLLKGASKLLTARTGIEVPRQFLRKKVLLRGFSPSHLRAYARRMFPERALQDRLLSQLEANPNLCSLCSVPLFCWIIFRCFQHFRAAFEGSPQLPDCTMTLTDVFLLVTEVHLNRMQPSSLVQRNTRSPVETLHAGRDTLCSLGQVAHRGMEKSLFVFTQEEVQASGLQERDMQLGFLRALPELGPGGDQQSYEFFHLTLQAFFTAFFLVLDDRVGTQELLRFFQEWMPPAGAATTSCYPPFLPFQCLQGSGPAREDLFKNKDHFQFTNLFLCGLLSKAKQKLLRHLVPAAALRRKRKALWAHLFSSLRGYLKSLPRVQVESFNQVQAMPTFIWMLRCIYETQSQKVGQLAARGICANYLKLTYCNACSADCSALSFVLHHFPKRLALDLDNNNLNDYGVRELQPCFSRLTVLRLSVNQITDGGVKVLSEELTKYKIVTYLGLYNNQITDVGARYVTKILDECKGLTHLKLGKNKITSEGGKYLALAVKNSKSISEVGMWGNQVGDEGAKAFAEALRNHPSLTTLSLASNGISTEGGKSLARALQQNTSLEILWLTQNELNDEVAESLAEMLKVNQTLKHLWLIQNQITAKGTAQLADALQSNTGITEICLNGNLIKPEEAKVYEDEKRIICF
# [15] = target: T5, Nucleotide-binding oligomerization domain-containing protein 2; assay: PubChem AID 2334; assay type: functional
# INS1 = assay: beta cell apoptosis inhibitors, cytokine rescue, dose response, luminescence, retest (AID 449756); assay type: functional, cell-based; conditions: Rattus norvegicus;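 note: cell death triggered by IL-1 beta plus TNF-alpha plus IFN-gamma mixture; protective hits raise ATP signal compared with cytokine alone wells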
# [16] = Shn3 3'UTR reporter inhibitors, dose response, cell-based, Clone20 osteoblasts, firefly luciferase, cherry-picked (AID 624132); assay type: functional;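 note: firefly luciferase luminescence from reporter carrying the Shn3 3'UTR in osteoblasts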
# [17] = control 3'UTR Renilla luciferase suppression, dose response, counter-screen for Shn3 inhibitor project, cell-based, Clone20-Shn3RL, cherry-picked (AID 624133); assay type: functional
# HEK293 [18] = assay: cells; conditions: Homo sapiens
# [19] = target: Intestinal-type alkaline phosphatase (Homo sapiens, UniProt P09923); assay: human intestinal alkaline phosphatase activators, dose response, biochemical, luminescence, uHTS hits (AID 463120); assay type: functional
# Intestinal-type alkaline phosphatase, sequence (P09923 whole entry): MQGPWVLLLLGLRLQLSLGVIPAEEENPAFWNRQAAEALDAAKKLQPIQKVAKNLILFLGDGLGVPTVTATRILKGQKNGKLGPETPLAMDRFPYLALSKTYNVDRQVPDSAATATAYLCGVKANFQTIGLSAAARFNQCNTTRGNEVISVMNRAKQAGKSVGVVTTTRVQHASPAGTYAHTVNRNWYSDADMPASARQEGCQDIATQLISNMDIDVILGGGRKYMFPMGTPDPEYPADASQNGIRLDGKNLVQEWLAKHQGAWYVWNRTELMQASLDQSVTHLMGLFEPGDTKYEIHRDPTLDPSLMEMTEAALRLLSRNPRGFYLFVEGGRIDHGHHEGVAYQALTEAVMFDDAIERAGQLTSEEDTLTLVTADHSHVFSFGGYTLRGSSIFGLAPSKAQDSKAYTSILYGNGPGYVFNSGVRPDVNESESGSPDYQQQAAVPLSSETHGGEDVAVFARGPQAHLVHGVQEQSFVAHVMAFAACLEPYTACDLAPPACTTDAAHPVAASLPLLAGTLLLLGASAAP
# Nonstructural protein 1 = Nonstructural protein 1 (Influenza A virus, UniProt Q194T2); assay type: functional, Influenza A virus (A/California/07/2009(H1N1))
# Nonstructural protein 1, sequence (Q194T2 whole entry): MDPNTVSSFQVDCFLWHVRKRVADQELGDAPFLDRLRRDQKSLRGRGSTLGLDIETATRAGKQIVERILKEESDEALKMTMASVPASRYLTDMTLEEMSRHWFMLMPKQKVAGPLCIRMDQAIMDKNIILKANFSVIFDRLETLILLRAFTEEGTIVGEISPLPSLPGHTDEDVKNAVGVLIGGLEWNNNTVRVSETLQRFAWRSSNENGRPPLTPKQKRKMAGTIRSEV
# [20] = microbe, parasite or virus in culture; assay type: functional; conditions: Mycobacterium tuberculosis
# HeLa = assay: HeLa cell cytotoxicity, dose response, cytotoxicity control for MITF activator project, CellTiter-Glo luminescence, cherry-pick samples (AID 540259); assay type: functional, cell-based; conditions: Homo sapiens
compound,measurement,setting,value
CCCOc1ccc(-c2nc3c(c(=O)[nH]c(=O)n3Cc3ccccc3)n2CCO)cc1OCC,AC50,CAAX prenyl protease 2 [1],14.5 µM (active)
CC(C)C(=O)Nc1c2c(nc3ccccc13)N(C)CC2,AC50,Trypsin,12.8 µM (active)
same,AC50,CAAX prenyl protease 2 [1],36.2 µM (active)
same,AC50,CAAX prenyl protease 2 [2],24 µM (active)
CCn1nnnc1SCC(=O)Nc1nc(C)c(C)s1,AC50,CAAX prenyl protease 2 [2],9.77 µM (active)
O=C(Nc1ccccc1N1CCN(C(=O)c2ccccc2)CC1)c1ccc([N+](=O)[O-])o1,AC50,[3],11.4 µM (active)
same,CC50,Vero,21.6 µM (active)
CCc1ccc(-n2c(SCc3cc(=O)n4cc(Br)ccc4n3)nc3nncc-3c2O)cc1,CC50,[4],17 µM (active)
same,EC50,[5],> 79.4 µM (inactive)
same,EC50,[6],> 79.4 µM (not active)
same,EC50,[7],14.4 µM (not active)
O=C(Nc1ccc([N+](=O)[O-])cc1)c1ccccc1,AC50,[3],40.2 µM (active)
same,IC50,Protein skinhead-1,> 100 µM (inactive)
Cc1nn(Cc2ccccc2Cl)c(C)c1C(=O)NCCN1C(=O)S/C(=C\c2ccccc2)C1=O,EC50,[5],> 79.4 µM (inactive)
same,EC50,[6],> 79.4 µM (not active)
same,EC50,[7],> 79.4 µM (not active)
CCOC(=O)c1c(C)[nH]c(C)c1C(=O)CSc1nc2ccccc2c(=O)n1-c1ccc(CC)cc1,EC50,HEK293 [8],6.9 µM (active)
same,IC50,HEK293 [9],> 20 µM (inactive)
same,IC50,HEK293 [10],13.4 µM (active)
same,EC50,[11],5.86 µM (active)
same,IC50,HEK293 [12],7.12 µM (active)
same,IC50,HEK293 [13],> 20 µM (inactive)
same,IC50,Tumor necrosis factor,11.1 µM (active)
same,IC50,[14],15.2 µM (active)
same,IC50,[15],12 µM (active)
same,AC50,INS1,5.33 µM (active)
same,AC50,[16],5.36 µM (active)
same,AC50,[17],6.48 µM (active)
same,IC50,HEK293 [18],> 20 µM (inactive)
CCC(=O)N1CCc2cc(S(=O)(=O)N3CCN(c4ccc(Cl)cc4)CC3)ccc21,IC50,Tumor necrosis factor,> 20 µM (inactive)
same,IC50,[14],> 20 µM (inactive)
same,IC50,[15],> 20 µM (inactive)
same,IC50,HEK293 [18],> 20 µM (inactive)
CC(=O)N1CCc2cc(S(=O)(=O)N3CCN(c4ccc(C#N)cc4)CC3)ccc21,IC50,Tumor necrosis factor,8.79 µM (active)
same,IC50,[14],5.87 µM (active)
same,IC50,[15],9.24 µM (active)
same,IC50,HEK293 [18],> 20 µM (inactive)
O=C(NCCCN1CCOCC1)C(=O)N/N=C/c1ccccc1O,EC50,[19],19.2 µM (active)
same,IC50,Nonstructural protein 1,11.2 µM (active)
CC(C)c1ccc2nc(N)sc2c1,CC50,[20],> 40 µM (active)
same,AC50,HeLa,54.4 µM (active)
